Laboratory results: US6521590B1, “Biocidal proteins” (priority 1991, dated 2003)
Where no end group is shown, it is not given here.

What was measured:
Fusarium culmorum = format: physicochemical
Experimental: Tests for antifungal activity were performed with 20 μl samples diluted five-fold with growth medium containing Fusarium culmorum spores, according to the assay method given in Example 1. untreated control samples consisted of the test proteins at 500 μg/ml in 10 mM sodium phosphat buffer (pH 7). For digestions, different proteases were added at 100 μg/ml and incubated at 37° C. for 16 hours. Heat stability tests were performed by heating aliquots of the test proteins for 10 minutes at different temperatures up to 100° C. pH stability was tested by incubation of test proteins for 1 hour in either 20 mM glycine-HCl (pH 2) or glycine-NaOH (pH 11) and subsequent dialysis for 16 hours against 10 mM sodium phosphate buffer (pH 7) using benzoylated cellulose tubing. Reduction of dishulphide bridges was done by addition of DTE at 30 mM and Tris-HCl (pH 8.6) at 300 mM. The reagents were removed by reversed-phase chromatography. For digestions, different proteases were added at 200 μg/ml and incubated at 37° C. for 3 hours.

[1] = test system: Pyricularia oryzae MUCL 30166; format: cell-based
[2] = test system: Nectria haematococca Collection Van Etten 160-2-2; format: cell-based
[3] = test system: Cercospora beticola strain K897; format: cell-based
[4] = test system: Botrytis cinerea MUCL 30158; format: cell-based
[5] = test system: Fusarium oxysporum f.sp. pisi IMI 236441; format: cell-based
[6] = test system: Colletotrichum lindemuthianum MUCL 9577; format: cell-based
[7] = test system: Verticillium albo-atrum (K0937); format: cell-based
[8] = test system: Ascochyta pisi MUCL 30164; format: cell-based
[9] = test system: Fusarium culmorum IMI 180420; format: cell-based
[10] = test system: Verticillium dahliae MUCL 19210; format: cell-based
[11] = test system: Penicillium digitatum (K0879); format: cell-based
[12] = Chitin micro-column binding; settings: washed at pH 7, desorbed with 100 mM acetic acid (pH 2.8), SDS-PAGE
[13] = test system: Trichoderma viride (K1127); format: cell-based
[14] = test system: Saccharomyces cerevisiae JRY188; settings: S cerevisiae
Experimental: Routinely, tests were performed with 20 μl of a (filter-sterilized) test solution and 80 μl of a fungal spore suspension (2×10^4 spores/ml) or mycelium fragments in either half strength potato dextrose broth (medium A) or half strength potato dextrose broth with CaCl2 and KCl added to final concentrations of 1 mM and 50 mM respectively (medium B). For experiments on the antagonistic effect of cations, a synthetic growth medium was used instead of Potato Dextrose Broth. […] Control microcultures contained 20 μl of sterile distilled water and 80 μl of the fungal spore suspension.
Unless otherwise stated the test organism was Fusarium culmorum (strain IMI 180420) and incubation was carried out at 25° C. for 48 hours. Percent growth inhibition is defined as 100 times the ratio of the corrected absorbance of the control microculture minus the corrected absorbance of the test microculture over the corrected absorbance at 595 nm of the control microculture. The corrected absorbance values equal the absorbance at 595 nm of the culture measured after 48 hours minus the absorbance at 595 nm measured after 30 min. […] The antifungal activity (units per ml) is calculated as 50 times the dilution factor of a test solution at which 50% growth inhibition is obtained under the given assay conditions.
Antibacterial activity was measured microspectrophotometrically as follows. […]

plant pathogenic fungi = format: cell-based
[15] = test system: Rhizoctonia solani CBS 207-84; format: cell-based
[16] = test system: Pyrenophora tritici-repentis MUCL 30217; format: cell-based
Phoma betae MUCL 9916 = format: cell-based
[17] = test system: Fusarium oxysporum f.sp. lycopersici MUCL 909; format: cell-based
[18] = test system: Alternaria brassicola MUCL 20297; format: cell-based
B cinerea = experiment: Effect of ions on antifungal activity (synthetic growth medium); format: cell-based, Botrytis cinerea; settings: for increase of the IC50 values with CaCl2 at 1 mM: reference medium + 1 mM CaCl2; for effect of KCl at 10 mM on the dose-response curves: reference medium + 10 mM KCl; for increase of the IC50 values with KCl at 50 mM: reference medium + 50 mM KCl
Phytophthora infestans = format: cell-based
[19] = test system: Venturia inaegualis MUCL 15927; format: cell-based

## Ca-AMP1: Antimicrobial protein purified from seeds of Capsicum annuum (SEQ ID NO: 15) (QEQCGNQAGGRACANRLCCSQYGYCGSTRAYCGVGCQSNCGR)
Fusarium culmorum; chymotrypsin digestion, 37° C.
  antifungal activity after chymotrypsin treatment: no affect on activity
Fusarium culmorum; heating for 10 minutes at different temperatures up to 100° C.
  antifungal activity after heat treatment: resistant to heat treatment at up to 80 °C for 10 minutes
Fusarium culmorum; pronase E digestion, 37° C.
  reduction of antifungal activity after pronase E treatment: at least 10 fold
Fusarium culmorum; proteinase K digestion, 37° C.
  reduction of antifungal activity after proteinase K treatment: at least 10 fold
Fusarium culmorum; reduction by DTE / dithiothreitol
  antifungal activity after reduction of disulphide bonds: completely abolished the antifungal activity
Fusarium culmorum; trypsin digestion, 37° C.
  reduction of antifungal activity after trypsin treatment: 2 fold
[1]
  IC50 (μg/ml) Medium A: 5 µg/mL
  IC50 (μg/ml) Medium B: >500 µg/mL
[2]
  IC50 (μg/ml) Medium A: 4 µg/mL
  IC50 (μg/ml) Medium B: >500 µg/mL
[3]
  IC50 (μg/ml) Medium B: 200 µg/mL
[4]
  IC50 (μg/ml) Medium B: >500 µg/mL
[5]
  IC50 (μg/ml) Medium A: >500 µg/mL
  IC50 (μg/ml) Medium B: >500 µg/mL
[6]
  IC50 (μg/ml) Medium A: 50 µg/mL
  IC50 (μg/ml) Medium B: >500 µg/mL
[7]
  IC50 (μg/ml) Medium B: >500 µg/mL
[8]
  IC50 (μg/ml) Medium B: >500 µg/mL
[9]
  IC50 (μg/ml) Medium A: 4 µg/mL
  IC50 (μg/ml) Medium B: >500 µg/mL
  morphological changes in partially inhibited fungal spores: severe branching of the emerging hyphal tips
[10]
  IC50 (μg/ml) Medium A: 6 µg/mL
  IC50 (μg/ml) Medium B: >500 µg/mL
[11]
  IC50 (μg/ml) Medium B: >500 µg/mL
[12]
  affinity toward chitin: exhibits affinity to chitin
[13]
  IC50 (μg/ml) Medium A: 200 µg/mL
  IC50 (μg/ml) Medium B: >500 µg/mL
[14]
  IC50: 30 µg/mL
Plant pathogenic fungi
  number of pathogenic fungi with IC50 value below 10 μg/ml: 10 of the fungi
[15]
  IC50 (μg/ml) Medium A: 8 µg/mL
  IC50 (μg/ml) Medium B: >500 µg/mL
[16]
  IC50 (μg/ml) Medium A: 70 µg/mL
  IC50 (μg/ml) Medium B: >500 µg/mL
Phoma betae MUCL 9916
  IC50 (μg/ml) Medium A: 300 µg/mL
  IC50 (μg/ml) Medium B: >500 µg/mL
[17]
  IC50 (μg/ml) Medium A: 300 µg/mL
  IC50 (μg/ml) Medium B: >500 µg/mL
[18]
  IC50 (μg/ml) Medium B: >500 µg/mL

## Ac-AMP1: Antimicrobial protein from Amaranthus caudatus seeds, 29 residues, dimer of two identical 3 kDa subunits (SEQ ID NO: 5) (VGECVRGRCPSGMCCSQFGYCGKGPKYCG; cysteine pairing not given here; also: dimer of two identical subunits)
B cinerea
  increase of the IC50 values with CaCl2 at 1 mM: five to six-fold
  effect of KCl at 10 mM on the dose-response curves: did not significantly affect the dose-response curves
  increase of the IC50 values with KCl at 50 mM: about three-fold
Phytophthora infestans
  IC50: 12 µg/mL
[12]
  affinity toward chitin: exhibit affinity toward chitin

## Ac-AMP2: Antimicrobial protein from Amaranthus caudatus seeds, 30 residues, Ac-AMP1 plus a carboxyl-terminal arginine (SEQ ID NO: 6) (VGECVRGRCPSGMCCSQFGYCGKGPKYCGR; not fully specified; cysteine pairing not given here)
[19]
  IC50: 3 µg/mL
B cinerea
  increase of the IC50 values with CaCl2 at 1 mM: five to six-fold
  effect of KCl at 10 mM on the dose-response curves: did not significantly affect the dose-response curves
  increase of the IC50 values with KCl at 50 mM: about three-fold
[3]
  IC50: 0.8 µg/mL
[4]
  IC50: 8 µg/mL
[6]
  IC50: 8 µg/mL
[8]
  IC50: 8 µg/mL
[10]
  IC50: 5 µg/mL
[12]
  affinity toward chitin: exhibit affinity toward chitin
[18]
  IC50: 4 µg/mL
